Test results as given in US20260042764A1, “COMPOSITIONS AND METHODS FOR INHIBITION OF KRAS” (TheRas, Inc., priority 2022, published 2026).
pIC50: −log10 of the molar value.

Columns and labels:
[1] = molecular target: T1, Avi-KRAS G12V (1-169) GppNHp/RAF1 RBD-3xFLAG (52-151) (Homo sapiens, UniProt P01116, G12V); assay: Raf1-KRAS G12V-GppNHP disruption HTRF assay (Biological Example 1); type: binding
T1 construct: Avi-KRAS G12V (1-169)
Method in brief: (§1)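 HTRF PPI disruption; buffer 50 mM Tris pH 7.5, 100 mM NaCl, 5 mM MgCl2, 0.1% BSA, 0.01% Tween, 10% DMSO. Protein mix 1 h RT shaking, reagent mix 1 h RT shaking. Data as % activity vs DMSO (100%).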

[2] = molecular target: T2, Avi-KRAS G12R (1-169) GppNHp/RAF1 RBD-3xFLAG (52-151) (Homo sapiens, UniProt P01116, G12R); assay: Raf1-KRAS G12R-GppNHP disruption HTRF assay (Biological Example 1); type: binding
T2 construct: Avi-KRAS G12R (1-169)
Method in brief: as §1

[3] = molecular target: T3, Avi-KRAS WT (1-169) GppNHp/RAF1 RBD-3xFLAG (52-151) (Homo sapiens, UniProt P01116); assay: Raf1-KRAS WT-GppNHP disruption HTRF assay (Biological Example 1); type: binding
T3 construct: Avi-KRAS WT (1-169)
Method in brief: as §1

[4] = tested on: GP2d cells (KRAS G12D); assay: Cell-based pERK HTRF assay in GP2d cell (Biological Example 2); conditions: GP2d (KRAS G12D) cells, pERK HTRF
Method in brief: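 HTRF read-out of pERK (excitation 320 nm, emission 615 nm) after lysates sat 4–24 h at room temperature with Eu cryptate and d2 antibodies.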

[5] = tested on: SW620 cells (KRAS G12V); assay: Cell-based pERK HTRF assay in SW620 cell (Biological Example 4); conditions: pERK HTRF
Method in brief: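 In SW620 cells grown in RPMI with 10% FBS, a 4 h compound treatment (0.25% DMSO, 9-point curve from 1 μM) preceded lysis. Phospho-ERK levels were then read by time-resolved FRET at 615 nm emission.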

[6] = molecular target: T4, Avi-KRAS G12D (1-169) GppNHp/RAF1 RBD-3xFLAG (52-151) (Homo sapiens, UniProt P01116, G12D); assay: Raf1-KRAS G12D-GppNHP disruption HTRF assay (Biological Example 1); type: binding
T4 construct: Avi-KRAS G12D (1-169)
Method in brief: as §1

[7] = KRAS G12V, GppNHp-loaded, class symbols
[8] = KRAS G12R, GppNHp-loaded, class symbols
[9] = KRAS WT, GppNHp-loaded, class symbols
[10] = Homo sapiens, SW-620, SW620 (KRAS G12V) cells, class symbols
[11] = KRAS G12D, GppNHp-loaded, class symbols
[12] = Homo sapiens, SW-620, SW620 (KRAS G12V) cells
[13] = KRAS G12V, GppNHp-loaded, Table 11
[14] = KRAS G12R, GppNHp-loaded, Table 11
[15] = KRAS WT, GppNHp-loaded, Table 11
[16] = KRAS G12D, GppNHp-loaded, Table 11

T1 sequence (P01116 1-169 isoform P01116-2 G12V): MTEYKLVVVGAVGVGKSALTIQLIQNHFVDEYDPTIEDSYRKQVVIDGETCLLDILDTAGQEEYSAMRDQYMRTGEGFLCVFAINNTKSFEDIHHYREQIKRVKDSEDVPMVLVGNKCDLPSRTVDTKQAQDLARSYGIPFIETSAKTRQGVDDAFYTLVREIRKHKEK
T4 sequence (P01116 1-169 isoform P01116-2 G12D): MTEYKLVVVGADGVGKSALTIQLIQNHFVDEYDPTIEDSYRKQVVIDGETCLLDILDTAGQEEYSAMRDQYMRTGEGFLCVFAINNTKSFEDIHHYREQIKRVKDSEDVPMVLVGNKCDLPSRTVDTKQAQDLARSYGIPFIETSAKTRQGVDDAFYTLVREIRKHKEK
T2 sequence (P01116 1-169 isoform P01116-2 G12R): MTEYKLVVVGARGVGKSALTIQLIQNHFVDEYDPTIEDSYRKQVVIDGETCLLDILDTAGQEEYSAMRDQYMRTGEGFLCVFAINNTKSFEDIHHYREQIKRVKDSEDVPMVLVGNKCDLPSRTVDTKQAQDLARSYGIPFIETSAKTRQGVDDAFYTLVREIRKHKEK
T3 sequence (P01116 1-169 isoform P01116-2): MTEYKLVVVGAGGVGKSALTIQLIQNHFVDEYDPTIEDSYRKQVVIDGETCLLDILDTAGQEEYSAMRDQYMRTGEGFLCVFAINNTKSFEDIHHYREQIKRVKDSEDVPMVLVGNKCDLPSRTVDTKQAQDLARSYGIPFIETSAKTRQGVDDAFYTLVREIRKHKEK

Structure (SMILES) | pIC50 ([1]; KRAS G12V-GppNHp/RAF1 RBD HTRF) | pIC50 ([2]; KRAS G12R-GppNHp/RAF1 RBD HTRF) | pIC50 ([3]; KRAS WT-GppNHp/RAF1 RBD HTRF) | pIC50 ([4]; GP2d) | pIC50 [5, 12] | pIC50 ([6]; KRAS G12D-GppNHp/RAF1 RBD HTRF) | further results
CCN(c1nc(OC[C@@]23CCCN2C[C@H](F)C3)nc2c(F)c(-c3ccc(F)c4sc(N)c(C#N)c34)c(C(F)(F)F)cc12)[C@@H]1C[C@H](C)N(C(=O)COC)C1 (atropisomer, axis not shown) [Compound 589] | – | – | – | – | – | – | pIC50 [1, 7]: 6.00 to 7.00; pIC50 [2, 8]: 6.00 to 7.00; pIC50 [3, 9]: 6.00 to 7.00; pIC50 ([4]; GP2d, class symbols): > 7.00; pIC50 [5, 10]: > 7.00; pIC50 [6, 11]: 6.00 to 7.00
N#Cc1c(N)sc2c(F)ccc(-c3c(C(F)(F)F)cc4c(N5CC(O)C5)nc(OC[C@@]56CCCN5C[C@H](F)C6)nc4c3F)c12 [Compound 215] | – | – | – | > 7.00 | 6.00 to 7.00 | – | pIC50 [1, 13]: 6.00 to 7.00; pIC50 [2, 14]: 6.00 to 7.00; pIC50 [3, 15]: 6.00 to 7.00; pIC50 [6, 16]: 6.00 to 7.00
CC(=O)N1CC[C@H](N(C)c2nc(OC[C@@]34CCCN3C[C@H](F)C4)nc3c(F)c(-c4ccc(F)c5sc(N)c(C#N)c45)c(C(F)(F)F)cc23)[C@@H]1C (single isomer, unassigned) [Compound 195] | – | – | – | – | – | – | pIC50 [1, 13]: 5.00 to 6.00; pIC50 [2, 14]: 5.00 to 6.00; pIC50 [3, 15]: 5.00 to 6.00; pIC50 [4]: 6.00 to 7.00; pIC50 ([5]; SW620 (KRAS G12V) cells): 6.00 to 7.00; pIC50 [6, 16]: 5.00 to 6.00
CCC(=O)N1CC[C@@H](N(C)c2nc(OC[C@@]34CCCN3C[C@H](F)C4)nc3c(F)c(-c4ccc(F)c5sc(N)c(C#N)c45)c(C(F)(F)F)cc23)[C@H]1CC [Compound 432] | 5.00 to 6.00 | 6.00 to 7.00 | 6.00 to 7.00 | > 7.00 | 6.00 to 7.00 | 5.00 to 6.00 | –
N#Cc1c(N)sc2c(F)ccc(-c3c(C(F)(F)F)cc4c(N5C[C@@H]6CC[C@H]5CN6C(=O)C5CC5)nc(OC[C@@]56CCCN5C[C@H](F)C6)nc4c3F)c12 [Compound 456] | 6.00 to 7.00 | 6.00 to 7.00 | 6.00 to 7.00 | > 7.00 | > 7.00 | 6.00 to 7.00 | –
CCN(c1nc(OC[C@@]23CCCN2C[C@H](F)C3)nc2c(F)c(-c3ccc(F)c4sc(N)c(C#N)c34)c(C(F)(F)F)cc12)[C@H]1CCN(C(=O)[C@@H](C)OC)[C@@H]1C (atropisomer, axis not shown) [Compound 806] | – | – | – | – | – | – | pIC50 [1, 7]: 6.00 to 7.00; pIC50 [2, 8]: > 7.00; pIC50 [3, 9]: > 7.00; pIC50 ([4]; GP2d, class symbols): > 7.00; pIC50 [5, 10]: > 7.00; pIC50 [6, 11]: > 7.00
CCN(c1nc(OC[C@@]23CCCN2C[C@H](F)C3)nc2c(F)c(-c3ccc(F)c4sc(N)c(C#N)c34)c(C(F)(F)F)cc12)[C@H]1CCN(C(=O)N2CC(OC(F)F)C2)C1 (atropisomer, axis not shown) [Compound 794] | – | – | – | – | – | – | pIC50 [1, 7]: > 7.00; pIC50 [2, 8]: > 7.00; pIC50 [3, 9]: > 7.00; pIC50 ([4]; GP2d, class symbols): > 7.00; pIC50 [5, 10]: > 7.00; pIC50 [6, 11]: > 7.00
C[C@@H]1Cn2nc(C(=O)N(C)C)cc2CN1c1nc(OC[C@@]23CCCN2C[C@H](F)C3)nc2c(F)c(-c3ccc(F)c4sc(N)c(C#N)c34)c(C(F)(F)F)cc12 [Compound 510] | 5.00 to 6.00 | 6.00 to 7.00 | 5.00 to 6.00 | > 7.00 | > 7.00 | 5.00 to 6.00 | –

The next lines start with results.

pIC50 ([1]; KRAS G12V-GppNHp/RAF1 RBD HTRF) | pIC50 ([2]; KRAS G12R-GppNHp/RAF1 RBD HTRF) | pIC50 ([3]; KRAS WT-GppNHp/RAF1 RBD HTRF) | pIC50 ([4]; GP2d) | pIC50 [5, 12] | pIC50 ([6]; KRAS G12D-GppNHp/RAF1 RBD HTRF) | Structure (SMILES) | further results
6.00 to 7.00 | 6.00 to 7.00 | 6.00 to 7.00 | > 7.00 | > 7.00 | 6.00 to 7.00 | C[C@H]1C[C@H](N(C)c2nc(OC[C@@]34CCCN3C[C@H](F)C4)nc3c(F)c(-c4ccc(F)c5sc(N)c(C#N)c45)c(C(F)(F)F)cc23)CN1C(=O)C1CC1 [Compound 437] | –
5.00 to 6.00 | 6.00 to 7.00 | 5.00 to 6.00 | > 7.00 | > 7.00 | 5.00 to 6.00 | CC(C)C(=O)N1C[C@@H](N(C)c2nc(OC[C@@]34CCCN3C[C@H](F)C4)nc3c(F)c(-c4ccc(F)c5sc(N)c(C#N)c45)c(C(F)(F)F)cc23)C[C@@H]1C [Compound 436] | –
5.00 to 6.00 | 5.00 to 6.00 | 5.00 to 6.00 | > 7.00 | 6.00 to 7.00 | 6.00 to 7.00 | CC(=O)N1C[C@@H](N(C)c2nc(OC[C@@]34CCCN3C[C@H](F)C4)nc3c(F)c(-c4ccc(F)c5sc(N)c(C#N)c45)c(C(F)(F)F)cc23)C[C@H]1CC#N [Compound 503] | –
